# System: collapsing trachea
# Experiment: Treatment of collapsing trachea in dogs (case reports)
# Assay type: in vivo, dog
# Conditions: Pomeranian
# Description: Upon presentation, the patient had severe dyspnea and coughing.
# Oxycodone sustained release was prescribed, 10 mg twice daily. […] When appetite returned (along with resumed coughing) the patient's dosage was adjusted to 2.5 mg twice daily (cutting the 10 mg tablets in quarters). […] On two occasions when the beginning of a cough was observed, a single additional 2.5 mg tablet was administered, followed by return to the original twice-daily dosing regimen.
# The treatment described in Example 1 has been successfully repeated in two additional dogs diagnosed as having collapsing trachea.
structure (smiles),measurement,setting,value
"O=C(O)C(O)C(O)C(=O)O.Oc1ccc2c(c1)[C@@]13CCCC[C@@]1(O)[C@@H](C2)N(CC1CCC1)CC3 [Torbutrol, butorphenol]","cough (prior treatment, history)",history before presentation,had been controlling the cough
same,"exercise tolerance and panting (prior treatment, history)",history before presentation,highly intolerant to exercise (to the point of having to be carried) and continuously panting
same,response at presentation (refractory stage),severe intrathoracic collapsing trachea at presentation,stopped responding

# Source: patent US20170087149A9, “TREATMENT FOR […]” (priority 2013, published 2017)
